# Test results reported in patent US5981704A, “Kainate-binding, human CNS receptors of the EAA2 family” (Allelix Biopharmaceutical, priority 1997, dated 1999).
# Tests used:
# human EAA2a receptor [1] = molecular target: T1, human EAA2a receptor (Homo sapiens, UniProt Q16478); assay: [3H]-kainate binding assay (Scatchard analysis and displacement) on membranes of transfected COS-1 cells; conditions: for rank order of potency in displacement of [3H]-labelled kainate binding: FIG. 6
# T1 construct: This modification permitted the full length cDNA insert to be released as a 3.7 kb NotI/NotI fragment; expressed in transfected cells; host or cells: COS-1 (ATCC CRL 1650), transient, plasmid pcDNA1/humEAA2a; membranes
# T1 sequence (Q16478 15-980): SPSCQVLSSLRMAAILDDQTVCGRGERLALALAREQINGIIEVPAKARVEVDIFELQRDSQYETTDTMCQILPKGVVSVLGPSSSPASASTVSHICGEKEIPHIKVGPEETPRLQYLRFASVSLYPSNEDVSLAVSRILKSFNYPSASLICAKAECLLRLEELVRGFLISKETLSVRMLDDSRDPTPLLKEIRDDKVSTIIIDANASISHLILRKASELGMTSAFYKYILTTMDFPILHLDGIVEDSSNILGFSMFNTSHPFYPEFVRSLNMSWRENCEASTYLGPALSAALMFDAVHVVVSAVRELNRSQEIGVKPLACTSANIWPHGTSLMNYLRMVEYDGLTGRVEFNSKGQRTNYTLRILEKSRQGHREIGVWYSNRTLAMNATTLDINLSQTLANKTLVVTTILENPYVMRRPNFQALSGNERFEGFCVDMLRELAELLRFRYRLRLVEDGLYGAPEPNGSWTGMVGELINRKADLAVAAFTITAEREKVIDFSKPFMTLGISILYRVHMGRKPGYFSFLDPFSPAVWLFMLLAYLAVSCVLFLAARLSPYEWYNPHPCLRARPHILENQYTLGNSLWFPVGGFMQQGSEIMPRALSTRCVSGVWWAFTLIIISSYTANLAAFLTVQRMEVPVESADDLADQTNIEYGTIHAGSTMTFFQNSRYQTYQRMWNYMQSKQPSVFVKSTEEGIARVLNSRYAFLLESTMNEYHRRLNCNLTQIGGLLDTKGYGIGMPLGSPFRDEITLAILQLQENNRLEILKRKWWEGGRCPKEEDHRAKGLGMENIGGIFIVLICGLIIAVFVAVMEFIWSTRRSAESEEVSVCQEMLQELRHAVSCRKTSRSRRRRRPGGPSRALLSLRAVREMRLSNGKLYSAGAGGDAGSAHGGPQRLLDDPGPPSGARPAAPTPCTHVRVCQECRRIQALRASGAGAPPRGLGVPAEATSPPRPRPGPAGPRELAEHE
# Method: (§1) Transfected cells in the frozen state were resuspended in ice-cold distilled water using a hand homogenizer and centrifuged for 20 minutes at 50,000 g. The supernatant was discarded and the membrane pellet stored frozen at -70° C.
# (§2) COS cell membrane pellets were suspended in ice cold 50 mM Tris-HCl (pH 7.55, 5C) and placed inside Spectrapor 7 (EDTA-treated, sulfur-fee) dialysis tubing. The suspension was placed in 4 liters of ice cold 50 mM Tris-HCl (pH 7.55, 5C) and dialyzed for 16-24 hours at 5C in order to remove endogenous glutamate that would compete for binding. The tissue suspension was recovered from the tubing along with a small volume of buffer used to rinse the tubing. This resultant membrane preparation was used as tissue source for binding experiments described below. Proteins were determined using the Pierce Reagent with BSA as standard.
# Binding assays were then performed, using an amount of COS-derived membrane equivalent to from 25-100 ug as judged by protein determination and selected radiolabelled ligand. In particular, glutamate binding assays entailed formation of an incubation mixture consisting of 25-100 ug of tissue protein, and [3.4-3H]L-glutamic acid (47.3 Ci/mmole, 10 nM final) in 50 mM Tris-HCl (pH 7.55, 5C) in 1 ml final volume. Non-specific binding was in the presence of 1 mM L-glutamate. Samples were incubated on ice for 60 minutes in plastic minivials. Bound and free ligand were separated by centrifugation for 10 minutes at 50,000 g (4° C.). Tissue pellets were washed superficially with 2×6 ml of ice cold incubation buffer. Pellets were solubilized and counted in 5 ml of Beckman Ready Protein Scintillation cocktail.
# For kainate binding assays, incubation mixtures consisted of 25-100 μg tissue protein and [vinylidene-3H] kainic acid (58 Ci/mmole, 5 nM final) in the cold incubation buffer, 1 ml final volume. Non-specific binding was in the presence of 1 mM L-glutamate. Samples were incubated as for the glutamate binding assays, and bound and free ligand were separated by rapid filtration using a Brandel cell harvester and GF/B filters pro-soaked in ice-cold 0.3% polyethyleneimine. Filters were washed twice in 6 ml of the cold incubation buffer, then placed in scintillation vials with 5 ml of Beckman Ready-Safe scintillation cocktail for counting.
# human EAA2a receptor [2] = molecular target: T1, human EAA2a receptor; assay: [3H]-glutamate binding assay on membranes of transfected COS-1 cells; conditions: [3H]-glutamate at 10 nM; non-specific binding with 1 mM L-glutamate
# Method: as §1, §2
# Binding assays were then performed, using an amount of COS-derived membrane equivalent to from 25-100 ug as judged by protein determination and selected radiolabelled ligand. In particular, glutamate binding assays entailed formation of an incubation mixture consisting of 25-100 ug of tissue protein, and [3.4-3H]L-glutamic acid (47.3 Ci/mmole, 10 nM final) in 50 mM Tris-HCl (pH 7.55, 5C) in 1 ml final volume. […] Pellets were solubilized and counted in 5 ml of Beckman Ready Protein Scintillation cocktail.
compound,measurement,setting,value
N#Cc1cc2[nH]c(=O)c(=O)[nH]c2cc1[N+](=O)[O-] [CNQX],rank order of potency in displacement of [3H]-labelled kainate binding,human EAA2a receptor [1],kainate>domoate>quisqualate>glutamate>DNQX>dihydrokainate>CNQX>AMPA
C/C(=C/C=C/[C@@H](C)C(=O)O)[C@H]1CN[C@H](C(=O)O)[C@H]1CC(=O)O [domoate],rank order of potency in displacement of [3H]-labelled kainate binding,human EAA2a receptor [1],kainate>domoate>quisqualate>glutamate>DNQX>dihydrokainate>CNQX>AMPA
"N[C@@]1(C(=O)O)CC[C@@H](C(=O)O)C1 [1S,3R-ACPD]",displacement of kainate,human EAA2a receptor [1]; concentrations up to 100 uM,No displacement
O=c1[nH]c2cc([N+](=O)[O-])c([N+](=O)[O-])cc2[nH]c1=O [DNQX],rank order of potency in displacement of [3H]-labelled kainate binding,human EAA2a receptor [1],kainate>domoate>quisqualate>glutamate>DNQX>dihydrokainate>CNQX>AMPA
N[C@@H](Cn1oc(=O)[nH]c1=O)C(=O)O [quisqualate],rank order of potency in displacement of [3H]-labelled kainate binding,human EAA2a receptor [1],kainate>domoate>quisqualate>glutamate>DNQX>dihydrokainate>CNQX>AMPA
CC(C)[C@H]1CN[C@H](C(=O)O)[C@H]1CC(=O)O [dihydrokainate],rank order of potency in displacement of [3H]-labelled kainate binding,human EAA2a receptor [1],kainate>domoate>quisqualate>glutamate>DNQX>dihydrokainate>CNQX>AMPA
"C=C(C)[C@H]1CN[C@H](C(=O)O)[C@H]1CC(=O)O [kainate, kainic acid]",Kd,human EAA2a receptor [1],2.9 nM
same,rank order of potency in displacement of [3H]-labelled kainate binding,human EAA2a receptor [1],kainate>domoate>quisqualate>glutamate>DNQX>dihydrokainate>CNQX>AMPA
same,maximum binding (Bmax),human EAA2a receptor [1]; Scatchard analysis of [3H]-kainate binding,691 fmol/mg protein
same,specific binding of labelled ligand,"human EAA2a receptor [1]; [3H]-kainate at 5 nM, non-specific binding with 1 mM L-glutamate",specific
same,kainate binding affinity (in words),human EAA2a receptor [1]; nanomolar range,high affinity
"N[C@@H](CCC(=O)O)C(=O)O [glutamate, L-glutamic acid]",rank order of potency in displacement of [3H]-labelled kainate binding,human EAA2a receptor [1],kainate>domoate>quisqualate>glutamate>DNQX>dihydrokainate>CNQX>AMPA
same,specific binding of labelled ligand,human EAA2a receptor [2],specific
